{"source": "patent US12559776B2", "about": "“Chemical and biological integrated degradation process for polyethylene terephthalate (PET), for recycling pet” (Korea University Research and Business Foundation, priority 2021, dated 2026)", "molecules": {"B1": {"name": "/sPETase^Wild: wild-type PETase of I. sakaiensis, SEQ ID NO: 3 (protein)", "chain": "HMQTNPYARGPNPTAASLEASAGPFTVRSFTVSRPSGYGAGTVYYPTNAGGTVGAIAIVPGYTARQSSIKWWGPRLASHGFVVITIDTNSTLDQPSSRSSQQMAALRQVASLNGTSSSPIYGKVDTARMGVMGWSMGGGGSLISAANNPSLKAAAPQAPWDSSTNFSSVTVPTLIFACENDSIAPVNSSALPIYDSMSRNAKQFLEINGGSHSCANSGNSNQALIGKKGVAWMKRFMDNDTRYSTFACENPNSTRVSDFRTANCSLE", "modifications": "IsMHETase_wt"}}, "key": {"IsMHETase^Mut": {"target": "T1, IsMHETase^Mut (Piscinibacter sakaiensis, UniProt A0A0K8P8E7, W397A)", "T1 construct": "His tag (pET28a vector) (N); made in house; host or cells: E. coli BL21(DE3)", "T1 sequence (A0A0K8P8E7 other isoform, or with tags, fused parts or gaps W397A)": "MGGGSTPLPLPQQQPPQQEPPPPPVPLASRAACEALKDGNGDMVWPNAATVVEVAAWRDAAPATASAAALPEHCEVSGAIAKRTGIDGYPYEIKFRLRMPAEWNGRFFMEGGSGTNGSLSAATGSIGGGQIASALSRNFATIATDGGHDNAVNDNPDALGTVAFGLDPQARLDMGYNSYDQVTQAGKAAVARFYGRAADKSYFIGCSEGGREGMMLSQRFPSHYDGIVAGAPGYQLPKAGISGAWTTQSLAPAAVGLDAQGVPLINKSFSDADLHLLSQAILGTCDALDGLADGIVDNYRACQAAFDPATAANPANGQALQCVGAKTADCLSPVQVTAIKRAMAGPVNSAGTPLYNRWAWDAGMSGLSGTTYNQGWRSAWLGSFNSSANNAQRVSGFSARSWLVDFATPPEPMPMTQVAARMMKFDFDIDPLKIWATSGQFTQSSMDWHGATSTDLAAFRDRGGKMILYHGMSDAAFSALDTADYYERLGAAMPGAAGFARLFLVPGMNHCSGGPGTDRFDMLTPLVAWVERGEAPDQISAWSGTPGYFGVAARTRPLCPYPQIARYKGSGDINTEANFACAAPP", "test": "Inhibitory effect of catalysts on IsMHETase^Mut enzyme reaction", "type": "biochemical, Ideonella sakaiensis", "settings": "1 mM; enzyme 2.3 U/L; substrate MHET; 50 mM sodium phosphate buffer (pH 8); 40 °C, 15 minutes", "protocol": "(§1) To confirm whether the metal catalysts used in conventional PET glycolysis and betaine, which is an eco-friendly catalyst selected in this study, can have inhibitory effects on enzymatic hydrolysis, IsPETase^Mut and IsMHETase^Mut enzyme experiments were performed using 1 mM each of betaine, Ca^2+, Co^2+, Cu^2+, Fe^2+, Mg^2+, Mn^2+, Ni^2+, pb^2+, Zn^2+, and Li^+. The experiments were performed under conditions including an enzyme concentration of 2.3 U/L, 2.5 mg each of the substrates BHET and MHET, 50 mM sodium phosphate buffer (pH 8), and a volume of 500 μL. After performing the reaction at 40° C. for 15 minutes, all samples were diluted in methanol and centrifuged at 25,188 g for 10 minutes, followed by analyzing the supernatant through high performance liquid chromatography (HPLC). […] Therefore, the product of PET glycolysis using betaine may be used in enzymatic hydrolysis."}, "IsPETase^Mut": {"target": "T2, IsPETase^Mut (Piscinibacter sakaiensis, UniProt A0A0K8P6T7, D186H/R280A/S121E)", "T2 construct": "His tag (pET28a vector) (N); made in house; host or cells: E. coli BL21(DE3)", "T2 sequence (A0A0K8P6T7 other isoform, or with tags, fused parts or gaps S121E/D186H/R280A)": "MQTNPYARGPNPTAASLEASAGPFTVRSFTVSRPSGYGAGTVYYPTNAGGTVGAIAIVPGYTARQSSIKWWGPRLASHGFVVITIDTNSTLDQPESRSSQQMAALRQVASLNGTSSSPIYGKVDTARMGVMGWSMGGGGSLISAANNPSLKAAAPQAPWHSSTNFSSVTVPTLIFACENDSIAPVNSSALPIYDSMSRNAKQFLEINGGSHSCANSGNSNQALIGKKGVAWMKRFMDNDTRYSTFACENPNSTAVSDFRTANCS", "test": "Inhibitory effect of catalysts on IsPETase^Mut enzyme reaction", "type": "biochemical, Ideonella sakaiensis", "settings": "1 mM; enzyme 2.3 U/L; substrate BHET; 50 mM sodium phosphate buffer (pH 8); 40 °C, 15 minutes", "protocol": "as §1"}, "[1]": {"test": "PET glycolysis in EG with catalyst (microwave)", "settings": "190 °C", "protocol": "To establish an economical and efficient PET upcycling process, a chemical PET depolymerization process is required. […] A conventional PET glycolysis method mainly used a heavy metal catalyst. The use of a metal catalyst may have an adverse effect on the biological process of the integrated process and have adverse environmental effects, so glycolysis was performed in a microwave digestion system using betaine instead of a metal catalyst. Specifically, 3.5 to 11.5 g of granular PET and a specific amount of EG were reacted using betaine as a catalyst at 190° C. for 30 to 120 minutes. To maintain the reaction conditions, a microwave digester (Milestone, Shelton, CT) with a thermocouple and magnetic stirrer function was used, and the reaction was performed in a 100 mL reaction vessel for exclusive use of a microwave digester.\nTo determine the glycolysis effect of betaine, first, the input amount of a substrate was optimized. Glycolysis was performed at 190° C. for 30 minutes by adding 0.5% (catalyst/PET, w/w ratio) betaine to a PET substrate and an EG solvent at a molar ratio (PET:EG) of 1:3, 1:4, 1:5, 1:6, 1:10, or 1:20. Here, the major product BHET and a by-product MHET were produced. The BHET and MHET concentrations were measured by liquid chromatography. As a result, it was confirmed that the highest yield was obtained under a substrate input condition corresponding to a PET:EG molar ratio of 1:5. However, considering the concentration of the final product, it was confirmed that the yield was even higher under the substrate input condition corresponding to the PET:EG molar ratio of 1:4. […] Accordingly, the substrate input condition corresponding to a PET:EG molar ratio of 1:4 was selected, and further conditions were established (Table 2).\nTo confirm the catalytic effect on the input amount of betaine, betaine corresponding to 0, 0.1, 0.5, 1% (catalyst/PET, w/w ratio) was added, and glycolysis was performed at 190° C. for 30 minutes. As a result, it was confirmed that the condition of adding betaine corresponding to 0.5% (catalyst/PET, w/w ratio) is optimal. Accordingly, this condition was selected, and further conditions were established (Table 2)\nNext, to confirm the effect by glycolysis reaction time, the reaction was performed at 190° C. under various reaction time conditions of 30, 60, 90, and 120 minutes. As a result, it was confirmed that 60 minutes is the optimal condition. […] Afterward, in a biological process, the PET glycolysis product that had been produced under the above conditions was used as a substrate (Table 2). […]\nTo analyze a PET glycolysis product using betaine as a catalyst, high performance liquid chromatography (HPLC) analysis was performed. HPLC analysis conditions are as follows. As a column, a C18 column (OpitmaPak C18-51001546, 5 μm, 150 mm×4.6 mm) was used, and a column temperature was maintained at 25° C. during the analysis. Two mobile phases, A and B, were used, wherein A is 0.1% trifluoroacetic acid in distilled water, and B is methanol. During the analysis at a flow rate of 1 mL/min for 27 minutes, the proportion of the mobile phase B was maintained at 5% at 0 to 2 minutes, and the proportion of the mobile phase B was changed from 5 to 57% at 2 to 18 minutes. At 18 to 22 minutes, the proportion of the mobile phase B was changed from 57 to 5%. Finally, at 22 to 27 minutes, the proportion of the mobile phase B was maintained at 5%. Chromatography was performed at a wavelength of 254 nm using a UV/Vis detector."}, "[2]": {"test": "pH of 50 mM sodium phosphate buffer after adding TPA", "type": "physicochemical", "settings": "TPA 4 g/L in 50 mM sodium phosphate buffer (pH 8)", "protocol": "Based on the defined enzyme input amounts, a hydrolase reaction was performed using the product of PET glycolysis, in which betaine was used, as a substrate. Accordingly, the efficient input amounts of the IsPETase^Mut and IsMHETase^Mut enzymes relative to substrates were to be confirmed without wasting the enzymes. The reaction conditions included a PET glycolysis product including 10 g/L of BHET as a substrate, 50 mM sodium phosphate buffer (pH 8), and a volume of 500 μL. After the reaction was performed at 40° C. for 6 hours, 30 min, 1 hr, 3 hr, and 6 hr, samples were diluted in methanol and centrifuged at 25,188 g for 10 minutes, and followed by analyzing the supernatant through high performance liquid chromatography (HPLC). As a result, in FIG. 6c, when the enzyme input amounts are 2.3 U/L and 4.5 U/L, compared to 9.0 U/L, it was confirmed that the amount of the product TPA is low. As the reaction progressed, it was expected that the pH was lowered and the enzyme activity was lost due to the influence of the product TPA. First, to confirm how low the pH is under the enzymatic hydrolysis reaction conditions due to the influence of TPA, TPA was added at a concentration of 0 to 10 g/L under the condition of 50 mM sodium phosphate buffer (pH 8). As a result, in FIG. 6d, the pHs of all samples were measured with a pH meter and visually confirmed with pH paper. […]"}, "[3]": {"settings": "PET film; pH 7.0; 30 °C; 18 h; Yoshida et al.; cited from earlier work"}, "[4]": {"settings": "PET/EG 1:3, catalyst/PET 0.5 wt %, 30 min"}, "[5]": {"settings": "PET/EG 1:4, catalyst/PET 0.1 wt %, 30 min"}, "[6]": {"settings": "PET/EG 1:4, catalyst/PET 0.5 wt %, 30 min"}, "[7]": {"settings": "PET/EG 1:4, catalyst/PET 0.5 wt %, 60 min"}, "[8]": {"settings": "PET/EG 1:4, catalyst/PET 0.5 wt %, 90 min"}, "[9]": {"settings": "PET/EG 1:4, catalyst/PET 0.5 wt %, 120 min"}, "[10]": {"settings": "PET/EG 1:4, catalyst/PET 1 wt %, 30 min"}, "[11]": {"settings": "PET/EG 1:5, catalyst/PET 0.5 wt %, 30 min"}, "[12]": {"settings": "PET/EG 1:6, catalyst/PET 0.5 wt %, 30 min"}, "[13]": {"settings": "PET/EG 1:10, catalyst/PET 0.5 wt %, 30 min"}, "[14]": {"settings": "PET/EG 1:20, catalyst/PET 0.5 wt %, 30 min"}}}
{"molecule": "C[N+](C)(C)CC(=O)O", "note": "[betaine]", "values": [{"measurement": "inhibitory effect on IsMHETase^Mut enzyme reaction", "setting": "IsMHETase^Mut", "result": "no inhibitory effect"}, {"measurement": "inhibitory effect on IsPETase^Mut enzyme reaction", "setting": "IsPETase^Mut", "result": "no inhibitory effect"}, {"measurement": "collective yield of BHET and MHET", "setting": "[1]; [4]", "result": 34.6, "unit": "%"}, {"measurement": "titer of BHET", "setting": "[1]; [4]", "result": 256.8, "unit": "g/L"}, {"measurement": "titer of MHET", "setting": "[1]; [4]", "result": 24.9, "unit": "g/L"}, {"measurement": "collective yield of BHET and MHET", "setting": "[1]; [5]", "result": 26.6, "unit": "%"}, {"measurement": "titer of BHET", "setting": "[1]; [5]", "result": 185.3, "unit": "g/L"}, {"measurement": "collective yield of BHET and MHET", "setting": "[1]; [6]", "result": 52.3, "unit": "%"}, {"measurement": "titer of BHET", "setting": "[1]; [6]", "result": 330.6, "unit": "g/L"}, {"measurement": "titer of MHET", "setting": "[1]; [6]", "result": 27.6, "unit": "g/L"}, {"measurement": "collective yield of BHET and MHET", "setting": "[1]; [7]", "result": 58.7, "unit": "%"}, {"measurement": "titer of BHET", "setting": "[1]; [7]", "result": 368.6, "unit": "g/L"}, {"measurement": "titer of MHET", "setting": "[1]; [7]", "result": 32.8, "unit": "g/L"}, {"measurement": "collective yield of BHET and MHET", "setting": "[1]; [8]", "result": 55.1, "unit": "%"}, {"measurement": "titer of BHET", "setting": "[1]; [8]", "result": 341.2, "unit": "g/L"}, {"measurement": "titer of MHET", "setting": "[1]; [8]", "result": 35.1, "unit": "g/L"}, {"measurement": "collective yield of BHET and MHET", "setting": "[1]; [9]", "result": 53.8, "unit": "%"}, {"measurement": "titer of BHET", "setting": "[1]; [9]", "result": 313.8, "unit": "g/L"}, {"measurement": "titer of MHET", "setting": "[1]; [9]", "result": 50.4, "unit": "g/L"}, {"measurement": "collective yield of BHET and MHET", "setting": "[1]; [10]", "result": 42.4, "unit": "%"}, {"measurement": "titer of BHET", "setting": "[1]; [10]", "result": 286.9, "unit": "g/L"}, {"measurement": "titer of MHET", "setting": "[1]; [10]", "result": 6.8, "unit": "g/L"}, {"measurement": "collective yield of BHET and MHET", "setting": "[1]; [11]", "result": 52.7, "unit": "%"}, {"measurement": "titer of BHET", "setting": "[1]; [11]", "result": 307.6, "unit": "g/L"}, {"measurement": "titer of MHET", "setting": "[1]; [11]", "result": 21.6, "unit": "g/L"}, {"measurement": "collective yield of BHET and MHET", "setting": "[1]; [12]", "result": 51.6, "unit": "%"}, {"measurement": "titer of BHET", "setting": "[1]; [12]", "result": 268.3, "unit": "g/L"}, {"measurement": "titer of MHET", "setting": "[1]; [12]", "result": 19.1, "unit": "g/L"}, {"measurement": "collective yield of BHET and MHET", "setting": "[1]; [13]", "result": 49.8, "unit": "%"}, {"measurement": "titer of BHET", "setting": "[1]; [13]", "result": 189.8, "unit": "g/L"}, {"measurement": "titer of MHET", "setting": "[1]; [13]", "result": 6.7, "unit": "g/L"}, {"measurement": "collective yield of BHET and MHET", "setting": "[1]; [14]", "result": 37.2, "unit": "%"}, {"measurement": "titer of BHET", "setting": "[1]; [14]", "result": 81.3, "unit": "g/L"}, {"measurement": "titer of MHET", "setting": "[1]; [14]", "result": 2.9, "unit": "g/L"}]}
{"molecule": "C1CN=C2NCCCN2C1", "note": "[TBD, 1,5,7-triazabicyclo[4.4.0]dec-5-ene, reference compound]", "values": [{"measurement": "collective yield of BHET and MHET", "setting": "[1]; [7]", "result": 55.1, "unit": "%"}, {"measurement": "titer of BHET", "setting": "[1]; [7]", "result": 328.4, "unit": "g/L"}, {"measurement": "titer of MHET", "setting": "[1]; [7]", "result": 45.9, "unit": "g/L"}]}
{"molecule": "O=C(O)c1ccc(C(=O)O)cc1", "note": "[TPA, terephthalic acid]", "values": [{"measurement": "pH", "setting": "[2]", "result": 5.47}]}
{"molecule": "B1", "values": [{"measurement": "sum of TPA, MHET and BHET", "setting": "[3]", "result": "(0.3 mM"}]}
